For six compounds, IC50 results are on record in patent publication US11702411B2, “Pyridine, pyrazine, and triazine compounds as allosteric SHP2 inhibitors” (Revolution Medicines, Inc., priority 2017, dated 2023).

The term IC50 denotes the midpoint of a concentration-inhibition curve.

Structures are written as SMILES. Bounds are passed on as bounds.

Sequence of SHP2 (Q06124 whole entry): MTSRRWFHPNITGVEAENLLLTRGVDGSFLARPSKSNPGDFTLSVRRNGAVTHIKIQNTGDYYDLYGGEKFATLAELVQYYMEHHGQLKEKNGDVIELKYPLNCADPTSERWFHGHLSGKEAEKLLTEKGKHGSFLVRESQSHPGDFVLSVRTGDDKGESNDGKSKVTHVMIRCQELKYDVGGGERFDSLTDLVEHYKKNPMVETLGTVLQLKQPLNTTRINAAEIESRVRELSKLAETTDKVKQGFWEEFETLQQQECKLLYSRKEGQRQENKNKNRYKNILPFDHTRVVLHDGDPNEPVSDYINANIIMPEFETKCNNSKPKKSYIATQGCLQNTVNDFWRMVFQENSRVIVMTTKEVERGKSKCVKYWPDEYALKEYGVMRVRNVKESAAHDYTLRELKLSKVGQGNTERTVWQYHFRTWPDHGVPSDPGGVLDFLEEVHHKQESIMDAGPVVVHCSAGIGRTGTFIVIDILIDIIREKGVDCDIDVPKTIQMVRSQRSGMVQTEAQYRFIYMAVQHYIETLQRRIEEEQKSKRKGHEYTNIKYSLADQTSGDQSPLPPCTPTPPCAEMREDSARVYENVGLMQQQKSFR

This assay deals with SHP2 (Homo sapiens (Human), UniProt Q06124). The experiment in a line: SHP2 allosteric inhibition assay (DiFMUP prompt fluorescence, activating peptide). The assay is classed as biochemical. The following applies: 0.2 nM SHP2, 0.5 μM activating peptide, DiFMUP substrate; read-out: SHP2 Allosteric IC50. The source says:
Without wishing to be bound by theory, SHP is allosterically activated through binding of bis-tyrosyl-phosphorylated peptides to its Src Homology 2 (SH2) domains. The latter activation step leads to the release of the auto-inhibitory interface of SHP2, which in turn renders the SHP2 protein tyrosine phosphatase (PTP) active and available for substrate recognition and reaction catalysis. The catalytic activity of SHP2 was monitored using the surrogate substrate DiFMUP in a prompt fluorescence assay format.
The phosphatase reactions were performed at room temperature in 96-well black polystyrene plate, flat bottom, non-binding surface (Corning, Cat #3650) using a final reaction volume of 100 μL and the following assay buffer conditions: 50 mM HEPES, pH 7.2, 100 mM NaCl, 0.5 mM EDTA, 0.05% P-20, 1 mM DTT.
The inhibition of SHP2 by compounds of the present disclosure (concentrations varying from 0.00005-10 μM) was monitored using an assay in which 0.2 nM of SHP2 was incubated with 0.5 μM of Activating Peptide 1 (sequence: H2N-LN(pY)IDLDLV(dPEG8)LST(pY)ASINFQK-amide) or Activating Peptide 2 (sequence: H2N-LN(pY)AQLWHA(dPEG8)LTI(pY)ATIRRF-amide). After 30-60-minutes incubation at 25° C., the surrogate substrate DiFMUP (Invitrogen, Cat #D6567) was added to the reaction and activity was determined by a kinetic read using a microplate reader (Envision, Perkin-Elmer or Spectramax M5, Molecular Devices). The excitation and emission wavelengths were 340 nm and 450 nm, respectively. Initial rates were determined from a linear fit of the data, and the inhibitor dose response curves were analyzed using normalized IC50 regression curve fitting with control based normalization.
Turning to `C[C@@H]1OCC2(CCN(c3ncc(Sc4ccnc(N5CC(O)C5)c4Cl)nc3CO)CC2)[C@@H]1N` [Compound 29, 1-[4-({5-[(3S,4S)-4-amino-3-methyl-2-oxa-8-azaspiro[4.5]decan-8-yl]-6-(hydroxymethyl)pyrazin-2-yl}sulfanyl)-3-chloropyridin-2-yl]azetidin-3-ol], the IC50 is not above 50 nM.
The result for `C[C@@H]1OCC2(CCN(c3ncc(Sc4cccc(Cl)c4Cl)nc3CO)CC2)[C@@H]1N` [Compound 30, {3-[(3S,4S)-4-amino-3-methyl-2-oxa-8-azaspiro[4.5]decan-8-yl]-6-[(2,3-dichlorophenyl)sulfanyl]pyrazin-2-yl}methanol] reads not above 50 nM; that for `C[C@@H]1OCC2(CCN(c3ncc(Sc4ccnc(N)c4Cl)nc3CO)CC2)[C@@H]1N` [Compound 31, {6-[(2-amino-3-chloropyridin-4-yl)sulfanyl]-3-[(3S,4S)-4-amino-3-methyl-2-oxa-8-azaspiro[4.5]decan-8-yl]pyrazin-2-yl}methanol], not above 50 nM.
Next, `C[C@@H]1OCC2(CCN(c3ncc(Sc4cc(N)ncc4Cl)nc3CO)CC2)[C@@H]1N` [Compound 32, {3-[(3S,4S)-4-amino-3-methyl-2-oxa-8-azaspiro[4.5]decan-8-yl]-6-[(2-amino-5-chloropyridin-4-yl)sulfanyl]pyrazin-2-yl}methanol]: not above 50 nM; `N[C@@H]1CCCC12CCN(c1ncc(-c3cccc(Cl)c3Cl)nc1C(F)F)CC2` [Compound 34, (1R)-8-[5-(2,3-dichlorophenyl)-3-(difluoromethyl)pyrazin-2-yl]-8-azaspiro[4.5]decan-1-amine]: 50 to 500 nM; `C[C@@H]1OCC2(CCN(c3ncc(-c4cccc(Cl)c4Cl)nc3C(F)F)CC2)[C@@H]1N` [Compound 35, (3S,4S)-8-[5-(2,3-dichlorophenyl)-3-(difluoromethyl)pyrazin-2-yl]-3-methyl-2-oxa-8-azaspiro[4.5]decan-4-amine]: 50 to 500 nM.
